Experiments:
Assay type in all cases: cell-based, human
A549 cells [1] = test: Flow cytometry after PI staining, subG1 cell population
Description: (§1) To examine apoptosis induced by decorin, human tumor cell lines, U343, U87MG, C33A, Hep3B and A549 were introduced to 25T culture flasks and 24 hr later, were infected with each adenovirus at MOIs of 0.5-50. […] After 48 hr, 72 hr and 96 hr of infection, the infected cells were collected and fixed in 70% ethanol at 4° C. over 24 hr. Following the fixation, the cells were incubated at 4° C. with a mixture of PI (propidium iodide, 50 μg/ml) and RNase (ribonuclease) for 15 min and the FACS analysis was then performed.

C33A cells [2] = test: as above
Description: as §1

Hep3B cells [3] = test: as above
Description: as §1

U343 cells [4] = test: as above
Description: as §1

U87MG cells [5] = test: as above
Description: as §1

U343 cells [6] = test: Annexin V-FITC and PI dual staining, flow cytometry; conditions: FIG. 9b, replication-incompetent adenoviruses
Text: In addition, to examine early apoptosis induced by decorin, several human tumor cell lines were infected with each adenovirus as described above. The infected cells were collected and then processed for Annexin V/PI dual staining according to manufacturer's instruction in the ApoAlert V-FITC (fluorescein isothiocyanate) apoptosis detection kit (Clontech, Palo Alto, Calif.), followed by flow cytometric analysis.

A549 cells [7] = test: TUNEL assay
Description: (§2) U343 (5×10^4), U87MG (5×10^4), C33A (5×10^5), Hep3B (4×10^5) and A549 (5×10^4) cells were plated onto a chamber slide and then infected with adenovirus at an MOI of 0.2-20. Following 24 hr and 48 hr of infection, medium was removed and TUNNEL (terminal deoxynucleotidyl transferase(TdT)-mediated dUTP nick end labeling) assay was carried out according to the manufacturer's instruction of ApopTag kit (Intergen, Purchase, N.Y.). For color development, cells were incubated with peroxidase-conjugated avidin and DAB (diaminobenzidine; DAKO, Carpinteria, Calif.). At the time that color of cells became brown, cells were counterstained with 0.5% methyl green for 10 min and observed under microscope in more than 4 selected fields. The ratio of stained cells to total cells was calculated.

C33A cells [8] = test: TUNEL assay
Description: as §2

Hep3B cells [9] = test: TUNEL assay
Description: as §2

U343 cells [10] = test: TUNEL assay
Description: as §2

U87MG cells [11] = test: TUNEL assay
Description: as §2

[12] = Table 1, oncolytic adenoviruses, 48-96 hr post-infection
[13] = Table 2, replication-incompetent adenoviruses
[14] = Table 3 lower part, replication-incompetent adenoviruses
[15] = Table 3 upper part, oncolytic adenoviruses

## CCc1c2c(nc3ccc(OC(=O)N4CCC(N5CCCCC5)CC4)cc13)-c1cc3c(c(=O)n1C2)COC(=O)[C@]3(O)CC [CPT, camptothecin-11]
A549 cells [1]; [12]
  subG1 cell population (%): 17.96%
A549 cells [1]; [13]
  subG1 cell population (%): 21.59%
C33A cells [2]; [12]
  subG1 cell population (%): 26.44%
C33A cells [2]; [13]
  subG1 cell population (%): 68.20%
Hep3B cells [3]; [12]
  subG1 cell population (%): 5.99%
Hep3B cells [3]; [13]
  subG1 cell population (%): 16.60%
U343 cells [4]; [12]
  subG1 cell population (%): 59.86%
U343 cells [4]; [13]
  subG1 cell population (%): 29.02%
U87MG cells [5]; [12]
  subG1 cell population (%): 14.78%
U87MG cells [5]; [13]
  subG1 cell population (%): 12.51%
U343 cells [6]
  apoptotic rate (Annexin V-FITC+/PI−): 19.41%
A549 cells [7]; [14]
  Proportion of apoptotic cells (%): 69.80 ± 8.38%
A549 cells [7]; [15]
  Proportion of apoptotic cells (%): 37.5 ± 5.35%
C33A cells [8]; [14]
  Proportion of apoptotic cells (%): 70.51 ± 15.90%
C33A cells [8]; [15]
  Proportion of apoptotic cells (%): 60.1 ± 25.91%
Hep3B cells [9]; [14]
  Proportion of apoptotic cells (%): 75.86 ± 3.11%
Hep3B cells [9]; [15]
  Proportion of apoptotic cells (%): 71.2 ± 15.73%
U343 cells [10]; [14]
  Proportion of apoptotic cells (%): 74.67 ± 12.38%
U343 cells [10]; [15]
  Proportion of apoptotic cells (%): 53.5 ± 7.45%
U87MG cells [11]; [14]
  Proportion of apoptotic cells (%): 40.00 ± 13.17%
U87MG cells [11]; [15]
  Proportion of apoptotic cells (%): 83.0 ± 29.29%

— patent US9468690B2, “Decorin gene delivery system and cancer treatment” ([…] CO., LTD., priority 2005, dated 2016)
